Assay results taken from US20060188576A1, “Pirenzepine ophthalmic gel” (priority 2001, published 2006).
Where a name gives a salt, the structure may show the parent alone. Read-outs that look alike come from different tables or passages of the source.

Key:
[1] = tested on: chick model of myopia; details: subconjunctival injections; cited from earlier work
[2] = solution in up to 2% strength, topical ocular, adult volunteers; cited from earlier work
[3] = Stability of pirenzepine in solution; assay type: physicochemical; details: pH 5
[4] = tested on: myopia; details: stump-tailed monkeys; cited from earlier work
[5] = tested on: myopia; details: tree shrews; cited from earlier work
[6] = tested on: myopia; details: cited from earlier work
[7] = tested on: myopia; details: chicks; cited from earlier work

stability in solution [3]	Compound	axial eye growth [1]	comfort and systemic effects [2]	development of myopia [4]	development of myopia [5]	development of myopia ([6]; humans)	development of myopia [7]	effectiveness as myopia therapy ([6]; mild cycloplegic agent, several studies)
stable in solution especially at pH 5	CN1CCN(CC(=O)N2c3ccccc3C(=O)Nc3cccnc32)CC1 [Pirenzepine, 5,11-dihydro-11-[(4-methyl-1-piperazinyl)acetyl]-6H pyrido [2,3-b][1,4]-benzodiazepin-6-one dihydrochloride monohydrate]	attenuated axial eye growth	comfortable and without systemic effects	–	–	–	–	–
–	CN1[C@@H]2CC[C@H]1C[C@@H](OC(=O)C(CO)c1ccccc1)C2 (stereo partly drawn) [atropine]	attenuated axial eye growth	–	prevents the development of myopia	prevents the development of myopia	prevents the development of myopia	prevents the development of myopia	–
–	CCN(Cc1ccncc1)C(=O)C(CO)c1ccccc1 (stereo not drawn) [tropicamide]	–	–	–	–	–	–	effective in a number of studies but failed in other studies
